Source: US20130266605A1, “PEPTIDE INHIBITORS OF CD40L SIGNALING AND USES THEREFOR” (PHYLOGICA LIMITED, priority 2010, published 2013)
Read-outs that look alike come from different tables or passages of the source. Blank lines part the entries; values can stand above or below the molecule they belong to. Positions of bridges follow the written chain, without caps; N, C: chain ends. Non-standard residues stand in square brackets, D forms with d. Residues, ends and D or L forms follow the SMILES beside them. Chains are numbered I, II in the order given. No end group written: not given here. AEEA = NCCOCCOCC(=O)O

What was measured:
[1] = target: CD40L-induced CD86 expression on primary B-cells (UniProt P29965); experiment: Inhibition of CD40L-induced CD86 expression on primary B-cells (FACS); settings: for inhibition of CD40L-induced CD86 expression on primary B-cells: in words
Description: In one example, the ability of a peptide, analog or derivative of the invention to inhibit or reduce or delay expression of CD86 on primary B-cells was determined in the presence and absence of the peptides, analogs and derivatives of the invention. In particular, CD86 expression was determined by FACS.
As a control in these assays, LPS-induced expression of CD86 mediated by the Toll-like receptors TLR 2/4, and TNFα-induced cytoxicity, were also assayed to exclude effects mediated by ligands other than CD40L.

[2] = target: T1, CD40L-CD40 interaction (Homo sapiens, UniProt P29965); experiment: Chemiluminescent proximity assay (Alphascreen); format: binding; settings: for inhibition of the interaction between CD40L and CD40: in words, Alphascreen proximity assay
T1 sequence (P29965 113-261 limits assumed): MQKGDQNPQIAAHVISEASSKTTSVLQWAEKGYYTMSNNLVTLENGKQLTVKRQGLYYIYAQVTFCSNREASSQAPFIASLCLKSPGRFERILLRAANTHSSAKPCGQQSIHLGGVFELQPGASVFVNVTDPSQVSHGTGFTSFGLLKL
Description: In one example, the Alphascreen assay (PerkinElmer) was employed according to the manufacturer's instructions.
Homodimers and heterodimers were also assayed by chemiluminescent proximity assay for their ability to inhibit CD40L-CD40 interaction.

[3] = target: T2, CD40 ligand (UniProt P29965 108-261, limits assumed); experiment: Alphascreen, unmodified peptide, inhibition of CD40L/CD40-Fc
T2 construct: Used immobilised, soluble, or biotinylated on streptavidin beads; also called CD154; soluble CD40L
T2 sequence (looked up): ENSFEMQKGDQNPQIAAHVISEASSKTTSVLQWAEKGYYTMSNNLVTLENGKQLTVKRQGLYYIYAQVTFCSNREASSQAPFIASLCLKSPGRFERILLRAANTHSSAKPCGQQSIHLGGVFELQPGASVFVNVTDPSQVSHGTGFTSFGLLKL

[4] = read-out: EC50 PEGylated peptide, PEGylated monomeric peptide
[5] = PEGylated chiral (retro-inverted) analog, read-out: EC50(PEGylated) CD40L/CD40-Fc/BAF617

Chain of CD40L-induced CD86 expression on primary B-cells (P29965 whole entry): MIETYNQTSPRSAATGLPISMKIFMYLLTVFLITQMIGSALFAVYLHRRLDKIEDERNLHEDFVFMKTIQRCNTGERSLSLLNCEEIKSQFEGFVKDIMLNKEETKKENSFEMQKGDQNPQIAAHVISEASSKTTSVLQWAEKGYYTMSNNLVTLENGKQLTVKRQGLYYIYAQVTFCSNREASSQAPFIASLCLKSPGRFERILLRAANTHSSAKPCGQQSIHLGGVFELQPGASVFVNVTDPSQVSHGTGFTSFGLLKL
Chain of CD40L-induced CD86 expression on primary B-cells (P25942 21-277 partner): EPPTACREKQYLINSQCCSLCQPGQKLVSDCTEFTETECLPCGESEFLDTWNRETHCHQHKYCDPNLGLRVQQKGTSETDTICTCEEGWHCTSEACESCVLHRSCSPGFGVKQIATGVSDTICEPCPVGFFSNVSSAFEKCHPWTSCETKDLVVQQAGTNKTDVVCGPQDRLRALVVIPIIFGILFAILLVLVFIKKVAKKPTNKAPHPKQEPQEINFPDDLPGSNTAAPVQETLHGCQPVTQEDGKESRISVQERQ

- inhibition of CD40L-induced CD86 expression on primary B-cells [1]: enhanced inhibition
Molecule: CC[C@@H](C)[C@@H](NC(=O)[C@@H](Cc1ccccc1)NC(=O)[C@@H](C)NC(=O)[C@H](NC(=O)[C@@H](CC(C)C)NC(=O)[C@H]1CCCN1C(=O)[C@@H](Cc1ccccc1)NC(=O)[C@@H](CCC(N)=O)NC(=O)[C@@H](Cc1ccc(O)cc1)NC(=O)[C@@H](CC(C)C)NC(=O)[C@@H](Cc1c[nH]cn1)NC(=O)[C@@H](CCCNC(=N)N)NC(=O)[C@@H](CS)NC(=O)[C@H](N)CCCNC(=N)N)C(C)C)C(=O)N[C@H](CO)C(=O)N[C@H](Cc1c[nH]c2ccccc12)C(=O)N[C@H](CCC(N)=O)C(=O)N[C@@H](C(=O)N1CCC[C@@H]1C(=O)N[C@H](Cc1ccccc1)C(=O)N[C@H](Cc1ccccc1)C(=O)N[C@H](Cc1c[nH]c2ccccc12)C(=O)NCC(=O)N[C@H](Cc1ccc(O)cc1)C(=O)N[C@H](CCCCN)C(=O)N[C@H](CC(C)C)C(=O)N[C@@H](C(=O)N[C@H](Cc1c[nH]cn1)C(=O)N[C@H](CO)C(=O)N[C@H](CCCNC(=N)N)C(=O)N[C@H](Cc1ccc(O)cc1)C(=O)N1CCC[C@@H]1C(=O)N[C@@H](C(=O)N[C@H](Cc1ccccc1)C(=O)N1CCC[C@@H]1C(=O)N[C@H](CC(C)C)C(=O)O)C(C)C)C(C)C)C(C)C [CD40L M1_18rd] (H-[dR][dC][dR][dH][dL][dY][dQ][dF][dP][dL][dV][dA][dF][dI][dS][dW][dQ][dV][dP][dF][dF][dW]G[dY][dK][dL][dV][dH][dS][dR][dY][dP][dV][dF][dP][dL]-OH; N-terminus and C-terminus assumed)

- EC50 [1, 4]: 470 nM
- EC50 [2, 5]: 10 nM
Molecule: VHSYYVWILQFYYKFRSYRWHYQIS [CD40L M1_82rd]

- inhibition of CD40L-induced CD86 expression on primary B-cells [1]: concentration-dependent inhibition
Molecule: CC[C@H](C)[C@H](NC(=O)[C@H](CO)NC(=O)[C@H](Cc1c[nH]c2ccccc12)NC(=O)[C@H](CCC(N)=O)NC(=O)[C@@H](NC(=O)[C@@H]1CCCN1C(=O)[C@H](Cc1ccccc1)NC(=O)[C@H](Cc1ccccc1)NC(=O)[C@H](Cc1c[nH]c2ccccc12)NC(=O)CNC(=O)[C@H](Cc1ccc(O)cc1)NC(=O)[C@H](CCCCN)NC(=O)[C@H](CC(C)C)NC(=O)[C@@H](NC(=O)[C@H](Cc1c[nH]cn1)NC(=O)[C@H](CO)NC(=O)[C@H](CCCNC(=N)N)NC(=O)[C@H](Cc1ccc(O)cc1)NC(=O)[C@@H]1CCCN1C(=O)[C@@H](NC(=O)[C@H](Cc1ccccc1)NC(=O)[C@@H]1CCCN1C(=O)[C@@H](N)CC(C)C)C(C)C)C(C)C)C(C)C)C(=O)N[C@@H](Cc1ccccc1)C(=O)N[C@@H](C)C(=O)N[C@H](C(=O)N[C@@H](CC(C)C)C(=O)N1CCC[C@H]1C(=O)N[C@@H](Cc1ccccc1)C(=O)N[C@@H](CCC(N)=O)C(=O)N[C@@H](Cc1ccc(O)cc1)C(=O)N[C@@H](CC(C)C)C(=O)N[C@@H](Cc1c[nH]cn1)C(=O)N[C@@H](CCCNC(=N)N)C(=O)N[C@@H](CS)C(=O)N[C@@H](CCCNC(=N)N)C(=O)O)C(C)C [CD40L M1_18] (H-LPFVPYRSHVLKYGWFFPVQWSIFAVLPFQYLHRCR-OH; N-terminus and C-terminus assumed)

- EC50 [2, 5]: 16 nM
Molecule: SKVRMQFDIINFPVNVGFLVFSH [CD40L M1_42rd]

- inhibition of the interaction between CD40L and CD40 [2]: inhibition
Molecule: CC[C@H](C)[C@H](NC(=O)[C@H](CS)NC(=O)[C@H](Cc1ccccc1)NC(=O)[C@@H](NC(=O)[C@H](CC(N)=O)NC(=O)[C@H](CCCCN)NC(=O)[C@@H](NC(=O)[C@H](CO)NC(=O)[C@H](Cc1ccccc1)NC(=O)[C@@H]1CCCN1C(=O)[C@@H](N)Cc1c[nH]cn1)[C@@H](C)CC)C(C)C)C(=O)N[C@@H](Cc1c[nH]c2ccccc12)C(=O)N[C@@H](CC(N)=O)C(=O)N[C@@H](Cc1ccccc1)C(=O)N[C@@H](Cc1ccccc1)C(=O)N[C@@H](CO)C(=O)N[C@H](C(=O)N[C@@H](Cc1ccc(O)cc1)C(=O)O)C(C)C [CD40L M1_6] (H-HPFSIKNVFCIWNFFSVY-OH; N-terminus and C-terminus assumed)

- inhibition of CD40L-induced CD86 expression on primary B-cells [1]: enhanced inhibition
- inhibition of the interaction between CD40L and CD40 ([2]; listed as 6-9 dimer): enhanced inhibition
- inhibition of the interaction between CD40L and CD40 ([2]; listed as 6-9 high purity dimer): inhibition
Molecule: I: H-C[AEEA]PPRYNLFFLFRFYSSFRRDYLYF / II: H-C[AEEA]HPFSIKNVFSIWNFFSVY (disulfide I:1-II:1) [Cys_M1_6S-Cys_M1_9S heterodimer]

- EC50 [1, 4]: 2000 nM
- EC50 [2, 5]: 12 nM
Molecule: FHRMYVILQIIWFITPRWTFP [CD40L M7_206rd]

- EC50 [2, 5]: 14 nM
Molecule: FYLYDRRFSSYFRFLFFLNYRPP [CD40L M1_9rd]

- inhibition of CD40L-induced CD86 expression on primary B-cells [1]: enhanced inhibition
- inhibition of the interaction between CD40L and CD40 ([2]; listed as 6-189 dimer): enhanced inhibition
- inhibition of the interaction between CD40L and CD40 ([2]; listed as 6-189 high purity dimer): inhibition
Molecule: I: H-C[AEEA]LLLFFFSPPFSIFSFSLTTLS / II: H-C[AEEA]HPFSIKNVFSIWNFFSVY (disulfide I:1-II:1) [Cys_M1_6S-Cys_M1_189S heterodimer]

- EC50 [2, 5]: 24 nM
Molecule: AQWWHHRFSFLGAIQFFERGAAD [CD40L M1_30rd]

- EC50 ([2]; monomeric non-PEGylated (unmodified) base peptide; 50% reduction in control emission at 520-620 nm; read-out: EC50nmodified) CD40L/CD40-Fc/BAF617): 120 nM
Molecule: CC[C@H](C)[C@H](NC(=O)[C@H](CO)NC(=O)[C@H](Cc1ccccc1)NC(=O)[C@@H]1CCCN1C(=O)[C@@H]1CCCN1C(=O)[C@H](CO)NC(=O)[C@H](Cc1ccccc1)NC(=O)[C@H](Cc1ccccc1)NC(=O)[C@H](Cc1ccccc1)NC(=O)[C@H](CC(C)C)NC(=O)[C@H](CC(C)C)NC(=O)[C@@H](N)CC(C)C)C(=O)N[C@@H](Cc1ccccc1)C(=O)N[C@@H](CS)C(=O)N[C@@H](Cc1ccccc1)C(=O)N[C@@H](CO)C(=O)N[C@@H](CC(C)C)C(=O)N[C@H](C(=O)N[C@H](C(=O)N[C@@H](CC(C)C)C(=O)N[C@@H](CO)C(=O)O)[C@@H](C)O)[C@@H](C)O [CD40L M7_189] (H-LLLFFFSPPFSIFCFSLTTLS-OH)

- inhibition of CD40L-induced CD86 expression on primary B-cells [1]: enhanced inhibition
- inhibition of the interaction between CD40L and CD40 ([2]; listed as 6-6 dimer): enhanced inhibition
- inhibition of the interaction between CD40L and CD40 ([2]; listed as homodimer of the Phylomer peptide M1—6): inhibition
Molecule: CC[C@H](C)[C@H](NC(=O)[C@H](CO)NC(=O)[C@H](Cc1ccccc1)NC(=O)[C@@H](NC(=O)[C@H](CC(N)=O)NC(=O)[C@H](CCCCN)NC(=O)[C@@H](NC(=O)[C@H](CO)NC(=O)[C@H](Cc1ccccc1)NC(=O)[C@@H]1CCCN1C(=O)[C@H](Cc1c[nH]cn1)NC(=O)COCCOCCNC(=O)[C@@H](N)CSSC[C@H](N)C(=O)NCCOCCOCC(=O)N[C@@H](Cc1c[nH]cn1)C(=O)N1CCC[C@H]1C(=O)N[C@@H](Cc1ccccc1)C(=O)N[C@@H](CO)C(=O)N[C@H](C(=O)N[C@@H](CCCCN)C(=O)N[C@@H](CC(N)=O)C(=O)N[C@H](C(=O)N[C@@H](Cc1ccccc1)C(=O)N[C@@H](CO)C(=O)N[C@H](C(=O)N[C@@H](Cc1c[nH]c2ccccc12)C(=O)N[C@@H](CC(N)=O)C(=O)N[C@@H](Cc1ccccc1)C(=O)N[C@@H](Cc1ccccc1)C(=O)N[C@@H](CO)C(=O)N[C@H](C(=O)N[C@@H](Cc1ccc(O)cc1)C(=O)O)C(C)C)[C@@H](C)CC)C(C)C)[C@@H](C)CC)[C@@H](C)CC)C(C)C)C(=O)N[C@@H](Cc1c[nH]c2ccccc12)C(=O)N[C@@H](CC(N)=O)C(=O)N[C@@H](Cc1ccccc1)C(=O)N[C@@H](Cc1ccccc1)C(=O)N[C@@H](CO)C(=O)N[C@H](C(=O)N[C@@H](Cc1ccc(O)cc1)C(=O)O)C(C)C [Cys_M1_6S homodimer] (I: H-C[AEEA]HPFSIKNVFSIWNFFSVY-OH / II: H-C[AEEA]HPFSIKNVFSIWNFFSVY-OH; disulfide I:1-II:1; C-terminus assumed)

- EC50 [2, 5]: 568 nM
Molecule: RVWNSFWLHIGGRQVGSPVFLSYFRNRVWRP [CD40L M1_50rd]

- EC50 [2, 5]: 20 nM
Molecule: YVSFFNWISFVNKISFPH [CD40L M1_6rd]

- EC50 ([1]; read-out: EC50 value of CD40L induction of CD86 expression, absence of a peptidyl inhibitor): ~9 nM
B1: CD40L: CD40 ligand used to induce CD86 expression on primary B-cells (protein)
chain: T2 sequence (looked up)

- EC50 [3]: 120 nM
Molecule: LLYVKVICFFCMLVQYNNFQTYK (Base peptide) [CD40L M2_159]

- EC50 [3]: 200 nM
Molecule: HSFVLFGVNVPFNIIDFQMRVKC (Base peptide) [CD40L M1_42]
